Source: US20210137861A1, “METHODS FOR REDUCING ACCUMULATED PATHOLOGIC TAU PROTEIN” (HOUGH EAR INSTITUTE, priority 2018, published 2021)

System: phospho-Tau (S202,T205) in SH-SY5Y neuroblastoma cells
Experiment: Okadaic acid-induced p-Tau accumulation in SH-SY5Y cells, co-incubation (AT8 immunoblot)
Assay type: cell-based
Settings: 100 nM OA alone, 3 h
Description: Reproducible hyperphosphorylated p-Tau accumulation can be induced in the SH-SY5Y neuroblastoma cell line following incubation with Okadaic Acid (OA), a small molecule inhibitor of protein phosphatase 2A (PP2A), according to the method described by Boban et al., J Neurosci Methods., S0165-0270(18)30297-8 (2018). In this experiment, SH-SY5Y cells were incubated with 100 nM OA alone or in combination with 2,4-DSPBN+NAC for three hours prior to harvesting the cells for immunoblot evaluations with the AT8 phospho-Tau (S202,T205) antibody or the housekeeping protein, GAPDH. […] Two doses of combinatorial 2,4-DSPBN+NAC (185 μM 2,4-DSPBN/500 μM NAC or 93 μM 2,4-DSPBN/250 μM NAC) were used in this experiment, each of which used a molar ratio that mimics the equal mass:mass ratios used in the in vivo studies (i.e. a 1:1 mass ratio of 2,4-DSPBN and NAC is equivalent to a 1:2.7 molar ratio).
Biological and technical replicates of the experiment described in FIG. 3 were conducted, and p-Tau(S202,T205) immunoblots (AT8 antibody) were subjected to densitometric evaluations of relative protein levels, using National Institutes of Health ImageJ software and the internal GAPDH protein standard. […]

With `C=C1[C@@H](O)[C@@H]2O[C@]3(CC[C@H](/C=C/[C@@H](C)[C@@H]4CC(C)=C[C@@]5(O[C@H](C[C@@](C)(O)C(=O)O)CC[C@H]5O)O4)O3)CC[C@H]2O[C@@H]1[C@@H](O)C[C@H](C)[C@H]1O[C@@]2(CCCCO2)CC[C@H]1C` [OA, Okadaic Acid] the “phospho-Tau(S202,T205) level relative to untreated control cells (immunoblot, FIG. 3)” value was “marked phospho-Tau(S202,T205) accumulation”.
